One data set relates to human ARPE19 cells. Briefly: Cell viability by ATP levels (CellTiter-Glo), serum starvation or H2O2. In kind it is cell-based. The conditions noted are these: for ATP viability tests: selection for in vivo studies: serum starvation and 300 uM H2O2, 25 nM peptide, 48 hr. Here is the method: (§1) The analogs were tested for their efficacy in reducing levels of TNFα, IFNγ, VEGF-A and increasing cell viability in in vitro assays. Efficacy was compared to both non-treated oxidative stressed controls and the control standard P78.
(§2) Briefly, to test efficacy of the compounds in preventing cell death, experiments were performed to screen for the ability of each analog to: 1) increase cellular bioenergetic levels in an ATP assay and 2) reduce cell death in an LDH assay. To test the action of each analog on inflammatory processes, Luminex bead arrays were used to examine the ability of each analog to decrease production of inflammatory cytokines. To test for the potential of each analog to reduce vascular leakage, qPCR was used to examine the ability of each analog to increase mRNA levels of ZO1 and occludin, two junction proteins essential to vascular integrity. To test peptide stability in the vitreous, the analogs were incubated with dissected vitreous humor and the samples were analyzed at various time points using Maldi-TOF. These tests allowed for the systematic selection of analogs having the least toxicity and the strongest potential to reduce pathology in vivo.
The effects of the peptides to increase cell viability by increasing levels of ATP were tested in two models of cell death: (i) serum starvation; (ii) oxidative stress caused by hydrogen peroxide toxicity (300 uM). With respect to serum starvation, human ARPE19 cells were grown to ˜85% confluency in 10% serum containing medium after which the cells were placed in serum-free medium for 48 hr in the presence or absence (control) of 25 nM of each peptide. For ATP assay, CellTiter-Glo® reagents were used and luminescence was determined after 12 min spectrophotometrically (n=4) (FIG. 2A). With respect to oxidative stress, human ARPE19 cells were grown to ˜85% confluency in 10% serum containing medium. The cells were then treated with 300 uM H2O2 for 48 hours in the presence or absence (control) of 25 nM of each peptide. Levels of ATP were measured and % luminescence to controls and P78 was quantitated (n=4). Changes to ATP levels are plotted against control values and p values are given to P78 (FIG. 2B).

The subject of another data set is TNFα. Briefly: TNFα secretion by RPE cells, Luminex. The data set is classed as cell-based, human. The protocol:
as §1, §2
(§3) Experiments were designed to assess the effects of each peptide compared to P78 on the inflammatory and vascular permeability/angiogenesis cytokines TNFα, IFNγ, and VEGFA. […]

The test system of the next data set is IFNγ. Briefly: IFNγ secretion by RPE cells, Luminex. In kind it is cell-based, human. The protocol: as §1, §2, §3
A further data set deals with VEGFA. Briefly: VEGFA secretion by RPE cells, Luminex. The data set is classed as cell-based, human. The conditions noted are these: for effect in reducing VEGFA levels compared to P78: 25 nM peptide, serum starvation. The protocol: as §1, §2
Experiments were designed to assess the effects of each peptide compared to P78 on the inflammatory and vascular permeability/angiogenesis cytokines TNFα, IFNγ, and VEGFA. Briefly, human retinal RPE cells were grown to ˜75% confluency in 10% serum containing medium. The cells were then exposed to serum starvation in the presence or absence (control) of 25 nM of each peptide including the prototype P78 and the active fragment of P78, SpxA1. The supernatant from each treatment was tested for effects on the secretion of TNFα, IFNγ, and VEGFA. The data represent the percent change to the control samples and p values are given for each peptide in relationship to the P78 treatment (FIGS. 3A through 3B).

A further data set in a line: in vivo. On the set-up: species or system rodents. Particulars: topical or ocular, 2 ug. Here is the method:
In addition, bioavailability studies of the peptides in rodent eyes were conducted and the results were compared to the control standard P78 peptide. For example, the peptides were tested in bioavailability studies in rodents at 1, 2, 4, 8 hrs (n=4 each peptide/time pt). The animals were given a single eye drop containing 2 μg of each peptide. At each time point the animals were sacrificed, vitreous harvested, and bioavailability assessed by Maldi TOF.

Another data set concerns HUVEC. Briefly: VEGF-mediated HUVEC tube formation on human dermal fibroblasts. In kind it is cell-based. Particulars: 100 nM peptide, 4 ng/ml VEGF, 12 days; compared to VEGF. Here is the method: Human dermal fibroblasts were cultured at 1×10^5/well in IncuCyte seeding medium (Essen Bioscience) in 96 wells plates for 1 hr. Medium was removed and replaced with complete IncuCyte growth medium (Essen Bioscience). Human umbilical vein endothelial cells (HUVEC) containing a green fluorescent marker (HUVEC CytoLight green) cells at 2000 cells/well were/well to attached dermal fibroblasts cultures and placed in the IncuCyte Zoom fluorescent and phase contrast multiplex imaging incubator (Essen BioScience). Twenty four hours later 4 ng/ml VEGF was added to all wells and 100 nM/ml PEDF peptides added to test wells. Cultures containing VEGF alone were used as positive controls and those containing 100 μM Suramin (VEGF inhibitor) used as negative controls. The cultures were placed at 37° C. in the Incucyte Zoom and HUVEC tube length networks measured over a 12 day incubation period using the Incucyte CellPlayer Angiogenesis software module and interface systems. Media was refreshed every 3-4 days.

Another data set relates to ZO1 and occludin. Briefly: qPCR of tight junction mRNA (potential to reduce vascular leakage). Particulars: compared to P78 and SpxA1. The data set is classed as cell-based. The protocol: as §2
To test for the potential of each peptide (81-2, 81-5, 81-12, 81-13 and 81-20) to reduce vascular leakage, qPCR was used to examine the ability of each analog to increase mRNA levels of Z01, a junction protein essential to vascular integrity (FIG. 4A).

For a further data set, the system named is RPE cultures. The data set can be described thus: In vitro tests of inflammation, angiogenesis and cell viability, summarised together. In kind it is cell-based, human. The conditions noted are these: assays other than VEGFA. Here is the method: as §1
The analogs disclosed in Table 1 were assayed for improved stability and efficacy in in vitro assays for inflammation, angiogenesis, and cell death, which are the three leading pathological features of diabetic retinopathy.
as §2, with “These tests allowed for the systematic selection of analogs having the least toxicity and the strongest potential to reduce pathology in vivo.” left out

The next data set concerns VEGF. The data set can be described thus: Vitreous VEGF after 15 wks eye drops (Luminex). The data set is classed as in vivo, Ins2Akita mouse. Particulars: 5 μg eye drop 2×/wk for 15 wks, relative to diabetic controls. The protocol: From the in vitro P78 peptide analog screening studies, five structurally diverse analogs with best biological activity were selected to test their efficacy in the diabetic mouse eye. In vivo effects of these peptides were tested in the Ins2Akita mouse model of DR, a well-characterized DR model that has a mutation in the insulin gene. Heterozygote Ins2Akita mice (Jackson Lab) become hyperglycemic (HG) at ˜4.5 wks of age. RGC death and inflammation occur within the first 4-6 wks of DR and vascular pathology is first noticed ˜13 wks after the onset of diabetes. The studies were designed to identify peptide candidates with pleotrophic effects on cell death, inflammation, and vascular leakage in the diabetic retina.
Male hyperglycemic mice with blood glucose levels >300 mg/dL were used and treatments carried as previously described for P78 (Liu et al., 2012, Mol. Med., 18(1): 1387-1401). Diabetic mice were treated 2×/wk for 15 wks at the onset of HG using a single dose of 5 μg/5 μl artificial tears for each drug, a dose at which P78 is effective. Both eyes received the same treatment to avoid drug cross contamination between the eyes of an individual animal. […]
Levels of VEGF were also quantitated in the vitreous of the 15 wks peptide treated and control groups using the Luminex bead technology. […]

A short description of data set [1]: Peptide bioavailability in mouse vitreous after 5 μg eye drop (MALDI TOF). In kind it is in vivo, C57BL/6 mice. The conditions noted are these: compared to P78 and SpxA1. Here is the method: Before the longitudinal efficacy studies were carried out in vivo, the bioavailability of the five analogs was examined in comparison to the parent compound P78 and its active 29-mer derivative, SpxA1.
Bioavailability of each peptide was determined in vitreous samples obtained at various time points after eye drops were given. Vitreous samples were harvested from enucleated eyes and immediately analyzed by mass spectrometry. Spectral intensities were compared to spectra of known concentrations of each analog to calculate amounts of peptides reaching the vitreous. The eye drops administered to normal mouse eyes contained 5 μg of the test compound. Bioavailability was studied at three time points: 1, 4, 6 hr using four animals/time point (n=8 eyes). The vitreous was rapidly dissected from each group after the drops were given and immediately analyzed by MALDI TOF.

[2] abbreviates: change versus control standard P78.
Setting [3] is: change versus non-treated stressed control (C).

Where a SMILES comes first, the peptide text is derived from it. Where no end group is shown, it is not given here. [ ]: non-standard residue; d: D form. The star is where a group is joined. 1Nal = N[C@@H](Cc1cccc2ccccc12)C(=O)O; AEEA = NCCOCCOCC(=O)O; Butyryl = CCCC(=O)*

Take “{BA*}VLLSPLSVATALSAISIGADARTASIIHR{PEG*} (VLLSPLSVATALSAISIGADARTASIIHR[AEEA]; not fully specified (N-terminus); printed as {BA*}VLLSPLSVATALSAISIGADARTASIIHR{PEG*}) [Peptide 81-4, butyric acid on N-terminus, PEG2-CH2COOH at C-terminus]”: the “*ATP % to P78” value with human ARPE19 cells (setting [2]) is listed as 9%. Besides, the “*ATP % to C” value in the data set on human ARPE19 cells (setting [3]) is “+7%”. Further, in the data set with TNFα (setting [2]), the “*TNFα % to P78” value is −8%. The “*TNFα % to C” value in the data set on TNFα (setting [3]) is −2%. For the same molecule, in the data set on IFNγ (setting [2]), the “*IFNγ % to P78” value is listed as −11%. Besides, in the data set with IFNγ (setting [3]), the “*IFNγ % to C” value was −15%. Also, the “*VEGF % to P78” value in the data set with VEGFA (setting [2]) is −0%. In addition, the “*VEGF % to C” value in the data set with VEGFA (setting [3]) was −11%.

In “in vivo”, “SALSLGADERTESIIHR [Peptide 81-1, SALSLGADERTESIIHR]” had a level at 4 h of 1800 ng/mL.

Turning to “L-1-NALGADERTESIIHR ([1Nal]GADERTESIIHR) [Peptide 81-20]”, in the data set with human ARPE19 cells, the “ATP viability tests: selection for in vivo studies” value was “good candidates for the in vivo studies”. In the data set with HUVEC, the “inhibition of HUVEC tube formation” value is listed as “prevented tube formation compared to VEGF but less effective”. Further, in the data set on ZO1 and occludin, the “ZO1 mRNA expression” value is “higher expression of ZO1 compared to P78 and SpxA1”.

On to VLLSPLSVATALSALSLGADERTESIIHR [SpxA1], for which, in the data set “in vivo”, the level at 4 h turned out to be 920 ng/mL.

In the case of FGADERTESIIHR [Peptide 81-19], the “effect on the other assays compared to P78” value in the data set with RPE cultures was “less effective than P78”. Also, the “effect in reducing VEGFA levels compared to P78” value with VEGFA is recorded as “significantly better effects in reducing VEGFA levels”.

“SAISIGADARTASIIHR [Peptide 81-3, SAISIGADARTASIIHR]”: the level at 4 h in “in vivo” is 2280 ng/mL.

In turn, “SAISIGADERTESIIHR [Peptide 81-2, SAISIGADERTESIIHR]” had a level at 4 h in “in vivo” of 2000 ng/mL.

In the case of “VLLSPLSVATALSAISIGADARTASIIHR [Peptide 81-10]”, the “effect on the other assays compared to P78” value with RPE cultures is given as “less effective than P78”. Besides, in the data set with VEGFA, the “effect in reducing VEGFA levels compared to P78” value was “significantly better effects in reducing VEGFA levels”.

As to “{BA*}NFGYDLYRVRSSMSPTTNSALSLGADERTESIIHR{PEG*} (not fully specified (N-terminus, C-terminus); printed as {BA*}NFGYDLYRVRSSMSPTTNSALSLGADERTESIIHR{PEG*}) [Peptide 81-12, P60 + 81-1, butyric acid at N-terminus, PEGylated at C-terminus]”, in the data set with human ARPE19 cells, the “ATP viability tests: selection for in vivo studies” value is on record as “good candidates for the in vivo studies”. For the same molecule, in the data set on VEGF, the “VEGF levels in the vitreous” value was “slightly but significantly more effective”. The “inhibition of HUVEC tube formation” value in the data set with HUVEC is given as “prevented tube formation compared to VEGF but less effective”. Besides, the “ZO1 mRNA expression” value in the data set on ZO1 and occludin is “higher expression of ZO1 compared to P78 and SpxA1”.

On to “VLLSPLSVATALSALSLGADERTESIIHRALYYDLISSPDIHGT [Peptide P-78, reference compound]”, for which the level at 4 h in the data set “in vivo” worked out at 1200 ng/mL.

As to `CCCC(=O)N[C@@H](CO)C(=O)N[C@@H](C)C(=O)N[C@H](C(=O)N[C@@H](CO)C(=O)N[C@H](C(=O)NCC(=O)N[C@@H](C)C(=O)N[C@@H](CC(=O)O)C(=O)N[C@@H](C)C(=O)N[C@@H](CCCNC(=N)N)C(=O)N[C@H](C(=O)N[C@@H](C)C(=O)N[C@@H](CO)C(=O)N[C@H](C(=O)N[C@H](C(=O)N[C@@H](Cc1c[nH]cn1)C(=O)N[C@@H](CCCNC(=N)N)C(=O)NCCOCCOCC(=O)O)[C@@H](C)CC)[C@@H](C)CC)[C@@H](C)O)[C@@H](C)CC)[C@@H](C)CC` [Peptide 81-5, {BA*}SAISIGADARTASIIHR{PEG*}] (Butyryl-SAISIGADARTASIIHR[AEEA]-OH), the “stability profile in the vitreous after 6 hr” value in data set [1] is listed as “best stability profile”.

Values taken from US9611314B2, “Functional peptide analogs of PEDF” (The Penn State Research Foundation, priority 2013, dated 2017).
